Patent US5436260A, “Angiotensin II receptor antagonists” (Warner-Lambert Company, priority 1994, dated 1995)
Counter-ions that a name gives are not always drawn.

Biological target: T1, AT1 receptor (Rattus norvegicus, UniProt P25095)
T1 construct: rat liver membranes; from tissue; host or cells: rat liver membranes
T1 sequence (P25095 1-359): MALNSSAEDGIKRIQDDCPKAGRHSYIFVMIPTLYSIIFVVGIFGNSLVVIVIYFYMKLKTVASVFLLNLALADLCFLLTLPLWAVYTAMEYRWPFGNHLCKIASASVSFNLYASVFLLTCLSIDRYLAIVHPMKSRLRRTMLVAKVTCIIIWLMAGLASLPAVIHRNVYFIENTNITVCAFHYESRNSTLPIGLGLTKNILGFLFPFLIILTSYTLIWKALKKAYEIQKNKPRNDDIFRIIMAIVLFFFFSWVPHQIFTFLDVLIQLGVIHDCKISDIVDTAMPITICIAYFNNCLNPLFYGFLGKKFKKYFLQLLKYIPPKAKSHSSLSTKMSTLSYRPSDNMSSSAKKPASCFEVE
Assay: [^3 H]angiotensin II binding to rat liver membranes (AT1 test)
Conditions: inhibition of [^3 H]angiotensin II binding
Description: The compounds of Formula I or Ia are antagonists of angiotensin II. Dudley, D. T., et al, Molecular Pharmacology 1990;38:370-377 reported the existence of 2 subclasses of angiotensin II binding sites in rabbit adrenal gland and uterus and in the rat liver which differ in their tissue distribution and affinity for various peptide and nonpeptide ligands. Thus, the compounds of Formula I or Ia were tested for their ability to inhibit [^3 H]angiotensin II binding to rat liver membranes (AT1 test) according to the methods described by Dudley, D. T., et al, Molecular Pharmacology 1990;38:370-7. […] It is well established that compounds which antagonize the effect of angiotensin II at the AT1 receptor have value for treatment of hypertension and heart failure.

Row | Structure (SMILES) | IC50
1 | CCCCc1ncc(/C=C2/C(=O)N(CCCC)C(=O)N2Cc2ccccn2)n1Cc1ccc(C(=O)OC)cc1 [Example 58, Methyl Z-4-[[2-butyl-5-[[1-butyl-2,5-dioxo-3-(2-pyridinylmethyl)-4-imidazolidinylidene]methyl]-1H-imidazol-1-yl]methyl]benzoate dihydrochloride] | 5.81 nM
2 | CCCCc1ncc(/C=C2/C(=O)N(CCCC)C(=O)N2CC(=O)c2ccccc2)n1Cc1ccc(C(=O)OC)cc1 [Example 104, Methyl Z-4-[[2-butyl-5-[[1-butyl-2,5-dioxo-3-(2-oxo-2-phenylethyl)-4-imidazolidinylidene]methyl]-1H-imidazol-1-yl]methyl]benzoate monohydrochloride] | > 1000 nM
3 | CCCCc1ncc(/C=C2/C(=O)N(CCCC)C(=O)N2CCc2ccccc2)n1Cc1ccc(C(=O)OC)cc1 [Example 41, Methyl Z-4-[[2-butyl-5-[[1-butyl-2,5-dioxo-3-(2-phenylethyl)-4-imidazolidinylidene]methyl]-1H-imidazol-1-yl]methyl]benzoate mono hydrochloride] | 30.9 nM
4 | CCCCN1C(=O)N(C)C(=O)/C1=C\c1cnc(CCC)n1Cc1ccc(C(=O)OC)cc1 [Example 18] | 21 nM
5 | CCCCc1ncc(/C=C2/C(=O)N(CCCC)C(=O)N2Cc2csc(C)n2)n1Cc1ccc(C2(C(=O)OC)CCCC2)cc1 [Example 84, Methyl Z-1-[4-[[2-butyl-5-[[1-butyl-[3(2-methyl-4-thiazoly)methyl]-2,5-dioxo-4-imidazolidinylidene]methyl]-1H-imidazol-1-yl]methyl]phenyl]cyclopentane-carboxylate monohydrochloride] | 124 nM
6 | CCCCCCN1C(=O)/C(=C/c2cnc(CCCC)n2Cc2ccc(C(=O)OC)cc2)N(Cc2csc(C)n2)C1=O [Example 51, Methyl Z-4-[[2-butyl-5-[1-hexyl-3-[(2-methyl-4-thiazolyl)methyl-2,5-dioxo-4-imidazolidinylidene]methyl]-1H-imidazol-1-yl]methyl]benzoate dihydrochloride] | 5.33 nM
7 | CCCCc1ncc(/C=C2/C(=O)NC(=O)N2CCCC)n1Cc1ccc(-c2ccccc2-c2nn[nH]n2)cc1 [Example 91, Z-1-Butyl-5-[[2-butyl-3-[[2'-(1H-tetrazol-5-yl)[1,1'-biphenyl]-4-yl]methyl]-3H-imidazol-4-yl]methylene]-2,4-imidazolidinedione] | 1.37 nM
8 | CCCCc1ncc(/C=C2\C(=O)NC(=O)N2C)n1Cc1ccc(-c2ccccc2-c2nnn[nH]2)cc1 [Example 94, E-5-[[2-butyl-3-[[2'-(1H-tetrazol-5-yl)[1,1'-biphenyl]-4-yl]methyl]-3H-imidazol-4-yl]methylene]1-methyl-2,4-imidazolidinedione] | 8.57 nM
9 | CCCCc1ncc(/C=C2/C(=O)N(CCCC)C(=O)N2Cc2sccc2C)n1Cc1ccc(C(=O)OC)cc1 [Example 72, Methyl Z-4-[[2-butyl-5-[[1-butyl-3-[(3-methyl-2-thienyl)methyl]-2,5-dioxo-4-imidazolidinylidene]methyl]-1H-imidazol-1-yl]methyl]benzoate hydrochloride] | 23.9 nM
10 | CCCCc1ncc(/C=C2/C(=O)N(CCCC)C(=O)N2Cc2cccc[n+]2[O-])n1Cc1ccc(C(=O)OC)cc1 [Example 57, Methyl Z-4-[[2-butyl-5-[[1-butyl-2,5-dioxo-3-[(2-pyridinyl-N-oxide)-methyl]-4-imidazolidinylidene]methyl]-1H-imidazol-1-yl]methyl]benzoate] | 260 nM
11 | CCCCc1ncc(/C=C2/C(=O)N(CCCC(F)(F)F)C(=O)N2Cc2csc(C)n2)n1Cc1ccc(C(=O)OC)cc1 [Example 111, Methyl Z-4-[[2-Butyl-5-[[3-[(2-methyl-4-thiazoyl)methyl]-2,5-dioxo-1-(4,4,4-trifluorobutyl)-4-imidazolidinylidene]methyl]-1H-imidazol-1-yl]methyl]benzoate dihydrochloride] | 70 nM
12 | CCCCc1ncc(/C=C2/C(=O)N(Cc3cccs3)C(=O)N2Cc2cccs2)n1Cc1ccc(C(=O)O)cc1 [Example 105, Z-4-[[2-Butyl-5-[[2,5-dioxo-1,3-bis(2-thienylmethyl)-4-imidazolidinylidene]methyl]-1H-imidazol-1-yl]methyl]benzoic acid] | 1.47 nM
13 | CCCCc1ncc(/C=C2/C(=O)N(CCCC)C(=O)N2Cc2csc(C)n2)n1Cc1ccc(C(=O)O)cc1 [Example 59, Z-4-[[2-butyl-5-[[1-butyl-3-[(2-methyl-4thiazolyl)methyl]-2,5-dioxo-4-imidazolidinylidene]methyl]-1H-imidazol-1-yl]methyl]benzoic acid] | 1.21 nM
14 | CCCCc1ncc(/C=C2/C(=O)N(CCCC)C(=O)N2Cc2ccc([N+](=O)[O-])cc2)n1Cc1ccc(C(=O)OC)cc1 [Example 38, mono hydrochloride] | 16.9 nM
15 | CCCCc1ncc(/C=C2/C(=O)N(CCCC)C(=O)N2CC(=O)c2cccs2)n1Cc1ccc(C(=O)OC)cc1 [Example 103, Methyl Z-4-[[2-butyl-5-[[1-butyl-2,5-dioxo-3-[2-oxo-2-(2-thienyl)ethyl]-4-imidazolidinylidene]methyl]-1H-imidazol-1-yl]methyl]benzoate monochloride] | 120 nM
16 | CCCCc1ncc(/C=C2/C(=O)N(CCCC)C(=O)N2Cc2c(C)noc2C)n1Cc1ccc(C(=O)OC)cc1 [Example 69, Methyl Z-4-[[2-butyl-5-[[1-butyl-3-[(3,5-dimethyl-4-isoxazolyl)methyl]-2,5-dioxo-4-imidazolidinylidene]methyl]-1H-imidazol-1-yl]methyl]benzoate monohydrochloride] | 198 nM
17 | CCCCc1ncc(/C=C2/C(=O)N(CC3CC3)C(=O)N2Cc2cccs2)n1Cc1ccc(C(=O)OC)cc1 [Example 89, Methyl Z-4-[[2-butyl-5-[[1-(cyclopropylmethyl)-2,5-dioxo-3-(2-thienylmethyl)-4-imidazolidinylidene]methyl]-1H-imidazol-1-yl]methyl]benzoiate monohydrochloride] | 2.59 nM
18 | CCCCc1ncc(/C=C2/C(=O)NC(=O)N2Cc2cccs2)n1Cc1ccc(C(=O)OC)cc1 [Example 63] | 5.08 nM
19 | CCCCc1ncc(/C=C2\C(=O)N(CCCC)C(=O)N2Cc2cccs2)n1Cc1ccc(C(=O)OC)cc1 [Example 24, Methyl E-4-[[2-butyl-5-[[1-butyl-2,5-dioxo-3-(2-thienylmethyl)-4-imidazolidinylidene]methyl]-1H-imidazol-1-yl]methyl]benzoate monohydrochloride] | 10.3 nM
20 | CCCCc1ncc(/C=C2/C(=O)N(CC)C(=O)N2Cc2csc(C)n2)n1Cc1ccc(C(=O)OC)cc1 [Example 109, Methyl Z-4-[[2-butyl-5-[[1-ethyl-3-[(2-methyl-4-thiazolyl)methyl]-2,5-dioxo-4-imidazolidinylidene]methyl]-1H-imidazol-1-yl]methyl]benzoate dihydrochloride] | 11.1 nM

Other lines, results leading:

Row | IC50 | Structure (SMILES)
21 | 5.45 nM | CCCCc1ncc(/C=C2\C(=O)NC(=O)N2Cc2cccs2)n1Cc1ccc(C(=O)OC)cc1 [Example 16a, (e)-4-[]2-Butyl-5-[[2,5-dioxo-3-((2-thienyl)methyl)-4-imidazolidinylidene[methyl]-1H-imidazole-1-yl]methyl]benzoic acid, methyl ester]
22 | 10.9 nM | CCCCc1ncc(/C=C2\C(=O)NC(=O)N2CCCC)n1Cc1ccc(C(=O)OC)cc1 [Example 15a, (E)-4-[[2-Butyl-5-[(3-butyl-2,5-dioxo-4-imidazolidinylidene)methyl]-1H-imidazole-1-yl]methyl]benzoic acid, methyl ester]
23 | 4.17 nM | CCCCc1ncc(/C=C2/C(=O)NC(=O)N2Cc2ccccc2)n1Cc1ccc(C(=O)O)cc1 [Example 4b]
24 | 276 nM | CCCCc1ncc(/C=C2/C(=O)NC(=O)N2CCCC)n1Cc1ccc(C2(C(=O)OC)CCCCC2)cc1 [Example 88a]
25 | 83.8 nM | CCCCc1ncc(/C=C2/C(=O)NC(=O)N2C)n1Cc1ccc(C(=O)O)cc1 [Example 3b, (Z)-4-[[2-Butyl-5-[(2,5-dioxo-3-methyl-4-imidazolidinylidene)methyl]-1H-imidazol-1-yl]methyl]benzoic acid]
26 | 9.86 nM | CCCCc1ncc(/C=C2\C(=O)NC(=O)N2CCCC)n1Cc1ccc(-c2ccccc2C(=O)OC)cc1 [Example 96b, Methyl E 4'-[[2-butyl-5-[(3-butyl-2,5-dioxo-4-imidazolidinylidene)methyl]-1H-imidazol-1-yl]methyl][1,1'-biphenyl]-2-carboxylate]
27 | 2.47 nM | CCCCc1ncc(/C=C2/C(=O)NC(=O)N2Cc2ccc(Cl)cc2)n1Cc1ccc(C(=O)O)cc1 [Example 20b, Z-4-[[2-butyl-5-[[3-[(4-chlorophenyl)methyl]-2,5-dioxo-4-imidazolidinylidene]methyl]-1H-imidazol-1-yl]methyl]benzoic acid]
28 | 172 nM | CCCCc1ncc(/C=C2\C(=O)NC(=O)N2C)n1Cc1ccc(C(=O)O)cc1 [Example 3a, (E)-4-[[2-Butyl-5-[(2,5-dioxo-3-methyl-4-imidazolidinylidene)methyl]-1H-imidazol-1-yl]methyl]benzoic acid]
29 | 3.36 nM | CCCCc1ncc(/C=C2/C(=O)NC(=O)N2CCCC)n1Cc1ccc(-c2nn[nH]n2)cc1 [Example 76a, Z-1-Butyl-5-[[2-butyl-3-[[4-(1H-tetrazol-5-yl)phenyl]methyl]-3H-imidazol-4-yl]methylene]-2,4-imidazolidinedione]
